Reference: ChEMBL document CHEMBL4651402, “Screening of ~5500 FDA-approved drugs and clinical candidates for anti-SARS-CoV-2 activity” (2021)

Tested on: SARS-CoV-2
Test: microbe, parasite or virus in culture
Settings: Severe acute respiratory syndrome coronavirus 2, Vero C1008, 48 h

| SMILES | IC50 [µM] | IC50 (read-out: pIC50 (converted)) [µM] |
| --- | --- | --- |
| NC(=O)Cc1cccc(C(=O)c2ccccc2)c1N | > 20 | > 20 |
| CN[C@@H](C)[C@H](O)c1ccc(O)cc1 | > 20 | > 20 |
| CCOC(=O)[C@H](CCc1ccccc1)N[C@@H](C)C(=O)N1[C@H](C(=O)O)C[C@@H]2CCC[C@@H]21 | > 20 | > 20 |
| CC(C)=CCC[C@@](C)(O)[C@H]1CC=C(C)CC1 | > 20 | > 20 |
| NCc1c[nH]c(=S)n1[C@H]1CCc2c(F)cc(F)cc2C1 | > 20 | > 20 |
| Cc1cc(/C=C/c2ccc3cc(N(C)C)ccc3[n+]2C)c(C)n1-c1ccccc1 | > 20 | > 20 |
| CC(C)[C@@H](N)C(=O)O | > 20 | > 20 |
| COc1ccc2c(c1)CN(C(=O)CCN1CCC(Cc3ccccc3)CC1)CCS2 | > 20 | > 20 |
| C[C@@H](N)C12CC3CC(CC(C3)C1)C2 | > 20 | > 20 |
| Cc1nc(O)c2cc(CN(C)c3ccc(C(=O)NC(CCC(=O)O)C(=O)O)s3)ccc2n1 (stereo not given) | > 20 | > 20 |
| COc1cc(=O)n(C)c2c(OCC(O)C(C)(C)O)cccc12 (stereo not given) | > 20 | > 20 |
| C[N+]1(C)CCC[C@H]1C(=O)[O-] | > 20 | > 20 |
| C[C@@H]1CCC[C@H](C)N1 | > 20 | > 20 |
| CCCN(CCC)CCc1ccc(O)c(O)c1 | > 20 | > 20 |
| CN1C[C@H]2C[C@@H]1CN2c1cc2c(cc1F)c(=O)c(C(=O)O)cn2C1CC1 | > 20 | > 20 |
| OCc1cc2c(cn1)[nH]c1ccccc12 | > 20 | > 20 |
| C[N+]1(C)C2CCC1CC(OC(=O)C(O)c1ccccc1)C2 (stereo not given) | > 20 | > 20 |
| COc1c(O)cc2c(c1O)C1OC(CO)C(O)C(O)C1OC2=O (stereo not given) | > 20 | > 20 |
| CC(C)NCC(O)c1cc(O)cc(O)c1 (stereo not given) | > 20 | > 20 |
| C[C@H](N[C@@H](CCc1ccccc1)C(=O)O)C(=O)N1Cc2ccccc2C[C@H]1C(=O)O | > 20 | > 20 |
| CC[C@@]1(c2ccccc2)NC(=O)N(C)C1=O | > 20 | > 20 |
| CCOC(=O)Cc1ccc(-c2ccccc2)cc1 | > 20 | > 20 |
| CCOC(=O)Nc1ccc(SC[C@H]2CO[C@](Cn3ccnc3)(c3ccc(OC)cc3)O2)cc1 | > 20 | > 20 |
| Cc1cn([C@@H]2C[C@H](O)[C@@H](CO)O2)c(=O)[nH]c1=O | > 20 | > 20 |
| Cc1cc(OCCCS(C)(=O)=O)cc(C)c1-c1cccc(COc2ccc3c(c2)OC[C@@H]3CC(=O)O)c1 | > 20 | > 20 |
| C[C@H](CCC(=O)O)[C@H]1CC[C@H]2[C@@H]3[C@H](O)CC4C[C@H](O)CC[C@]4(C)[C@H]3CC[C@]12C (stereo not given in full) | > 20 | > 20 |
| CC(=O)OCC1OC(n2ccc(=O)[nH]c2=O)C(OC(C)=O)C1OC(C)=O (stereo not given) | > 20 | > 20 |
| CO/N=C(\C(=O)N[C@@H]1C(=O)N2C(C(=O)O)=C(C[N+]3(C)CCCC3)CS[C@H]12)c1csc(N)n1 | > 20 | > 20 |

| SMILES | IC50 [µM] | IC50 (read-out: pIC50 (converted)) [µM] |
| --- | --- | --- |
| CCCC[C@@]1(CC)CS(=O)(=O)c2cc(CNC(CC(=O)O)CC(=O)O)c(OC)cc2[C@H](c2ccccc2)N1 | > 20 | > 20 |
| COC(=O)Nc1c(N)nc(-c2nn(Cc3ccccc3F)c3ncccc23)nc1N | > 20 | > 20 |
| Nc1ncc([N+](=O)[O-])s1 | > 20 | > 20 |
| CC(=O)O[C@H]1CC[C@@]2(C)C(=CC(=O)[C@@H]3[C@@H]2CC[C@]2(C)C(=O)CC[C@@H]32)C1 | > 20 | > 20 |
| NC(=O)c1[nH]cnc1O | > 20 | > 20 |
| CC(C)c1ccc(C(=O)NCCOc2ccc(C(=O)O)cc2)cc1 | > 20 | > 20 |
| CC(C)OC(=O)[C@H](C)N[P@@](=S)(OC[C@H]1O[C@@H](n2ccc(=O)[nH]c2=O)[C@](C)(O)[C@@H]1O)Oc1ccccc1 | > 20 | > 20 |
| CC[C@H]1/C=C\C=C/C[C@@H](C)[C@H](O)[C@@](C)(O)C(=O)[C@@H](C)[C@H](O)[C@@H](C)C(=O)[C@@H](C)[C@H](O)[C@@H](C)/C=C\C(=O)O[C@@H]2[C@@H](C)[C@H](CC1)O[C@]1(CC[C@H](C)[C@H](C[C@@H](C)O)O1)[C@H]2C | > 20 | > 20 |
| C[C@@H]1CCC[C@@H](C)N1CCCC(O)(c1ccccc1)c1ccccn1 (stereo not given in full) | > 20 | > 20 |
| C[C@H](Cc1ccccc1)N(C)Cc1ccco1 | > 20 | > 20 |
| [2H]C([2H])(OC(=O)C(C)C)[C@@]1(CCl)O[C@@H](n2ccc(N)nc2=O)[C@H](F)[C@@H]1OC(=O)C(C)C | > 20 | > 20 |
| CC=C(C)C(=O)O[C@@H]1c2c(ccc3ccc(=O)oc23)OC(C)(C)[C@@H]1OC(C)=O | > 20 | > 20 |
| CC1O[C@@H](OC2CC[C@@]3(C)C(CCC4C3CC(O)[C@]3(C)[C@@H](C5=CC(=O)OC5)CCC43O)C2)CC(O)[C@@H]1O[C@H]1CC(O)[C@H](O[C@H]2CC(O)[C@H](O[C@@H]3OC(CO)[C@@H](O)C(O)C3O)C(C)O2)C(C)O1 (stereo not given in full) | > 20 | > 20 |
| CC(=O)OC1CCC2(C)C3CCC4(C)C(CC5OC6(CCC(C)CO6)C(C)C54)C3CC[C@H]2C1 (stereo not given in full) | > 20 | > 20 |
| C=C1CC23CCC4C(C)(C(=O)O)CCCC4(C)C2CCC1(OC1OC(CO)C(O)C(O)C1OC1OC(CO)C(O)C(O)C1O)C3 (stereo not given) | > 20 | > 20 |
| C[C@@]12CCC3[C@@](CC[C@@H]4[C@](C)(C(=O)O)CCC[C@@]34C)(CC1=O)C2 (stereo not given in full) | > 20 | > 20 |
| CCN(C/C=C\c1ccc(C2CCCCC2)c(Cl)c1)C1CCCCC1 | > 20 | > 20 |
| COc1ccccc1OC(=O)C(C)c1ccc(CC(C)C)cc1 (stereo not given) | > 20 | > 20 |
| O=C(O)[C@H]1C[C@H]([C@H]2CCCCN2)CN2CCCC[C@H]12 | > 20 | > 20 |
| COc1ccc(C2CNC(=O)NC2)cc1O[C@@H]1C[C@H]2CC[C@@H]1C2 | > 20 | > 20 |
| C/C=C1/C[C@@H](C)[C@](O)(CO)C(=O)OCC2=CCN3CC[C@@H](OC1=O)[C@@H]23 | > 20 | > 20 |
| C=C1CC[C@H](O)C/C1=C/C=C1\CCCC2(C)C1CCC2C(C)/C=C/C(C)C(C)C (stereo not given in full) | > 20 | > 20 |
| Nc1nc(OC(c2ccc(-c3cccc(F)c3)cc2)C(F)(F)F)cc(-c2ccc(C[C@H](N)C(=O)O)cc2)n1 (stereo not given in full) | > 20 | > 20 |
| C#C[C@]1(CO)O[C@@H](n2cnc3c(N)nc(F)nc32)C[C@@H]1O | > 20 | > 20 |
| CCc1c(C(=O)c2cc(C)cc(C)c2)n(CC2CC=CC2)c(=O)[nH]c1=O | > 20 | > 20 |
| COc1ccc(CCN(C)CCCC(C#N)(c2ccc(OC)c(OC)c2)C(C)C)cc1OC (stereo not given) | > 20 | > 20 |
| O=C[C@@H]1CCCN1C(=O)CCC(=O)NCc1ccc(Cl)cc1 | > 20 | > 20 |
